Common to all, as to type: cell-based
Assay [1] deals with influenza virus (A/PR/8/34 strain). Kind of assay: Anti-influenza virus activity, plaque inhibition in MDCK cells. The conditions noted are these: PR/8, MDCK; for inhibition at 10 µg/mL / inhibition at 100 µg/mL: 72 h, read-out: Inhibitory rate.
A further assay deals with Rotavirus (Ku strain). Kind of assay: Anti-rotavirus activity, plaque inhibition in MA-104 cells. The following applies: 30 μg/mL of test compound, plaque count.
The next assay concerns RS virus (A-2 strain). Kind of assay: Anti-RS virus (respiratory syncytial virus) activity, plaque inhibition in HEp-2 cells. The conditions noted are these: 30 μg/mL of test compound, plaque count.

From patent publication US6800629B2, “Pyrazine derivatives or salts thereof, pharmaceutical composition containing the same, and production intermediates thereof” (priority 2000, dated 2004) come the findings set out here.

Turning to `NC(=O)c1nc(F)cnc1O` [6-fluoro-3-hydroxy-2-pyrazinecarboxamide], in assay [1] (read-out: plaque inhibitory rate), the inhibition at 1 µg/mL turned out to be 100%.
Consider `NC(=O)c1nccn([C@@H]2O[C@H](COC(=O)c3ccccc3)[C@@H](OC(=O)c3ccccc3)[C@H]2OC(=O)c2ccccc2)c1=O` [Example I-1, [(2R,3R,4R,5R)-5-[3-(aminocarbonyl)-2-oxo-1(2H)-pyrazinyl]-3,4-bis(benzoyloxy)tetrahydro-2-furanyl]methyl benzoate], for which the anti-rotavirus activity result with Rotavirus (Ku strain) is recorded as “shows an anti-rotavirus activity”.
Regarding `NC(=O)c1nccn([C@@H]2O[C@H](CO)[C@@H](O)[C@H]2O)c1=O` [Example I-2, 4-[(2R,3R,4S,5R)-3,4-dihydroxy-5-(hydroxymethyl)tetrahydro-2-furanyl]-3-oxo-3,4-dihydro-2-pyrazinecarboxamide], in assay [1], the inhibition at 10 µg/mL was 95%.
In the case of `NC(=O)c1nccn(C2C[C@H](O)[C@@H](CO)O2)c1=O` (stereo partly drawn) [Example I-4, 4-[(4S,5R)-4-hydroxy-5-(hydroxymethyl)tetrahydro-2-furanyl]-3-oxo-3,4-dihydro-2-pyrazinecarboxamide], the inhibition at 100 µg/mL in assay [1] was found to be 80%.
`NC(=O)c1nc(F)cn([C@@H]2O[C@H](CO)[C@@H](O)[C@H]2O)c1=O` [Example I-6, 4-[(2R,3R,4S,5R)-3,4-dihydroxy-5-(hydroxymethyl)tetrahydro-2-furanyl]-6-fluoro-3-oxo-3,4-dihydro-2-pyrazinecarboxamide]: in assay [1], the inhibition at 10 µg/mL was determined as 47%.
`NC(=O)c1nc(Cl)cn([C@@H]2O[C@H](CO)[C@@H](O)[C@H]2O)c1=O` [Example I-7, 6-chloro-4-[(2R,3R,4S,5R)-3,4-dihydroxy-5-(hydroxymethyl)tetrahydro-2-furanyl]-3-oxo-3,4-dihydro-2-pyrazinecarboxamide]: the inhibition at 100 µg/mL in assay [1] stood at 42%.
Take `NC(=O)c1nccn(C2C=CC(CO)C2)c1=O` (stereo not drawn) [Example I-8, 4-[4-(hydroxymethyl)-2-cyclopenten-1-yl]-3-oxo-3,4-dihydro-2-pyrazinecarboxamide]: the inhibition at 100 µg/mL in assay [1] came out at 42%.
The same measure, in the same setting: the figure for `NC(=O)c1nccn([C@@H]2CO[C@H](CO)[C@@H](O)C2)c1=O` [Example I-9, 4-[(3S,5S,6R)-5-hydroxy-6-(hydroxymethyl)tetrahydro-2H-pyran-3-yl]-3-oxo-3,4-dihydro-2-pyrazinecarboxamide] is 31%.
On the same count and under the same terms, the figure for `NC(=O)c1nccn([C@@H]2CO[C@H](CO)[C@@H](O)[C@H]2O)c1=O` [Example I-10, 4-[(3R,4S,5S,6R)-4,5-dihydroxy-6-(hydroxymethyl)tetrahydro-2H-pyran-3-yl]-3-oxo-3,4-dihydro-2-pyrazinecarboxamide] is 26%; for `NC(=O)c1nccn([C@@H]2O[C@H](COP(=O)(O)O)[C@@H](O)[C@H]2O)c1=O` [Example I-12, {(2R,3S,4R,5R)-5-[3-(aminocarbonyl)-2-oxo-1(2H)-pyrazinyl]-3,4-dihydroxytetrahydro-2-furanyl}methyl dihydrogen phosphate] it is 28%; for `NC(=O)c1nccn([C@@H]2O[C@H](COP(=O)(OCc3ccccc3)OCc3ccccc3)[C@@H](O)[C@H]2O)c1=O` [Example I-13, {(2R,3S,4R,5R)-5-[3-(aminocarbonyl)-2-oxo-1(2H)-pyrazinyl]-3,4-dihydroxytetrahydro-2-furanyl}methyl dibenzyl phosphate] it is 39%.
`CC(=O)OC[C@H]1O[C@@H](n2ccnc(C(=N)N)c2=O)[C@H](OC(C)=O)[C@@H]1OC(C)=O` [Example I-14, (2R,3R,4R,5R)-4-(acetyloxy)-2-[(acetyloxy)methyl]-5-[3-[amino(imino)methyl]-2-oxo-1(2H)-pyrazinyl]tetrahydro-3-furanyl acetate]: the anti-RS virus activity entry in the assay with RS virus (A-2 strain) is “shows an anti-RS virus activity”.
